Results as given in patent US20060246095A1, “Multiepitope polypeptides for cancer immunotherapy” (HADASIT MEDICAL RESEARCH SERVICES & DEVELOPMENT LTD., priority 2003, published 2006).

Legend:
specific T cell clones = assay: Recognition assay for peptide presentation by DC, statements on T cell clones overall; assay type: cell-based, human; conditions: MEP-transfected DC, Lactacystin 25 μM and 50 μM
Method: T cell clones were co-incubated with DC in flat 96-well plate for 24 hours. DC were plated immediately after their transfection or pulsing in 6 separated plates, in the presence of GM CSF and IL-4. 1×10^5 T cells were added to 1×10^5 pulsed or transfected DC. In the longitudinal study, T cell clones were added to the transfected/pulsed DC at the following time points: T0=immediately, +12=after 12 hours, 24, 36, 48 and 72 hours. Supernatants were collected after overnight incubation. Interferon gamma release assay was performed to evaluate T cell stimulation using the ELISA method, results are presented in pg/ml.
Lactacystin was added to DC at concentrations of 25 μM and 50 μM, 4 hours post transfection. DC were incubated with lactacystin for 70 minutes and then washed twice.
Responding T cells were added after washing the lactacystin and co-incubated. Supernatents were collected after 20 hours.
Efficiency of epitope presentation and stimulation of specific T cell clone proliferation were evaluated by comparing the specific T cell clones response to the DC transfected with the multiepitope, to DC that were pulsed with specific peptides or DC transfected with full length melanoma associated antigens (gp100 and MART-1), using the recognition assay. […]

[1] = system: peripheral blood lymphocytes of breast carcinoma patients; conditions: cited from earlier work
mice = conditions: cited from earlier work

## CC(=O)N[C@@H](CSC(=O)[C@]1([C@@H](O)C(C)C)NC(=O)[C@H](C)[C@@H]1O)C(=O)O [Lactacystin]
Specific T cell clones
  effect of proteasomal inhibition on epitope expression: decreased the epitope expression of MEP-Mel to background level

## BA46-6: peptide BA46-6 (NLFETPVEA) of Lactadherin, SEQ ID NO: 27 (listed as Homo sapiens)
[1]
  specific CTL activity: elicited specific CTL activity
mice
  specific CTL activity: elicited specific CTL activity

## BA46-7: peptide BA46-7 (GLQHWVPEL) of Lactadherin, SEQ ID NO: 28 (listed as Homo sapiens)
[1]
  specific CTL activity: elicited specific CTL activity
mice
  specific CTL activity: elicited specific CTL activity
